Reference: patent US20240245711A1, “A 19-NOR C3,3-DISUBSTITUTED C21-N-PYRAZOLYL STEROID FOR THE TREATMENT OF MAJOR DEPRESSIVE DISORDER” (Sage Therapeutics, Inc., priority 2021, published 2024)
“Also recorded” adds a separate entry of the source.

Test system: adult subjects with Major Depressive Disorder
Assay: Phase 3 open-label 1-year study: safety and tolerability (TEAEs, SAEs, C-SSRS)
Type: in vivo, human
Details: for Subjects reporting TEAEs leading to dose reduction: Low dose cohort; for Subjects with Treatment Cycle Period TEAE / Subjects with Treatment Period TEAE: Study Period 1 only
Method: Primary Objective: To determine the safety and tolerability of initial treatment and re-treatment(s) with Compound (1) in adults with Major Depressive Disorder (MDD) currently experiencing a major depressive episode (MDE) over a 1-year period.
Study Population: Subjects were 18-75 years old, diagnosed with major depressive disorder (MDD) with a MADRS total score of ≥28 and a HAM-D total score of ≥20 at Screening and Day 1 (prior to dosing).
Treatment Groups: The 30 mg and 50 mg dose groups were separated by time of enrollment. The study is comprised of two cohorts: one with Compound (1) 30 mg as a starting dose (30 mg Cohort: n=725), an initial cohort with Compound (1) 50 mg as a starting dose (50 mg Cohort: n=199). A patient receiving Compound (1) 30 mg could be dose reduced to 20 mg and patients receiving Compound (1) 50 mg could be dose reduced to 40 mg (based on tolerability). In all cohorts, Compound (1) is self-administered by patients as an oral therapy once nightly with food for 14 days.
The study has a Screening Period of up to 28 days, a 14-day Treatment Period, and up to 1 year of Follow-up. FIG. 1 is an overview of the study.
Antidepressants were permitted provided subjects were on a stable dose for at least 60 days prior to Day 1 and agreed to continue on the stable dose through the follow-up period (Day 42). Initiation of new antidepressants or any other medications that may potentially have an impact on efficacy or safety endpoints were not allowed between screening and completion of the Day 42 assessments.
Eligible subjects were given Compound (1)—to be taken at home in the evening with meal.
Subjects who continued in the Observation Period were monitored remotely via PHQ-9 assessment every two weeks. If PHQ-9 score was >=10 at any assessment, PHQ-9 assessment was switch to every week until the score came down below 10 or the subject was dosed with Compound (1) in a subsequent cycle, whichever was earlier. A subject was to come back to the site for HAM-D assessment within a week of PHQ-9 score >=10; if the HAM-D total score >=20 and at least 56 days had elapsed since the last dose of Compound (1), another dosing cycle of Compound (1) were to start. If any of these criteria were not met, the subject couldn't be treated with Compound (1) at that time. Without the trigger of PHQ-9>=10 the subject was to have a clinic visit every 8 weeks. A subject could have at most 5 cycles of treatment within a year. FIG. 2 is a depiction of the eligibility criteria of the study.
Dose reduction from 30 mg to 20 mg or 50 mg to 40 mg was allowed in any treatment cycle if the safety and/or tolerability of the subject so warrants. […] Subjects who dose reduced from 30 mg to 20 mg still started with 30 mg in the next treatment cycle.
The cohorts pertaining to the different doses that the subjects received were defined as following: • 50 mg cohort: This cohort includes subjects who have initiated treatment with 50 mg and received re-treatment with 50 mg only. • 30 mg cohort: This cohort includes subjects who have initiated treatment with 30 mg regardless of the dose they have received in re-treatments. • Low dose cohort: This cohort includes subjects who have initiated treatment with 30 mg and received re-treatment with 30 mg only. • Dose switch cohort: This cohort includes subjects who have received initial treatment with 30 mg and at least one subsequent re-treatment with 50 mg. • Study Period X: starts on the date of the first dose of Compound (1) in cycle X and goes up to one day prior to the first dose of the next cycle. […]

[1] = Low Dose Cohort, ATD use at period-specific baseline No, Study Period 3
[2] = Low Dose Cohort, ATD use at period-specific baseline No, Study Period 4
[3] = Low Dose Cohort, ATD use at period-specific baseline No, Study Period 5
[4] = Low Dose Cohort, ATD use at period-specific baseline Yes, Study Period 1
[5] = Low Dose Cohort, ATD use at period-specific baseline Yes, Study Period 2
[6] = Low Dose Cohort, ATD use at period-specific baseline Yes, Study Period 3
[7] = Low Dose Cohort, ATD use at period-specific baseline Yes, Study Period 4
[8] = Low Dose Cohort, ATD use at period-specific baseline Yes, Study Period 5
[9] = overall study population (Example 5)

## C[C@@]1(O)CC[C@H]2[C@H](CC[C@@H]3[C@@H]2CC[C@]2(C)[C@@H](C(=O)Cn4cc(C#N)cn4)CC[C@@H]32)C1 [Compound (1), 1-(2-((3R,5R,8R,9R,10S,13S,14S,17S)-3-hydroxy-3,13-dimethylhexadecahydro-1H-cyclopenta[a]phenanthren-17-yl)-2-oxoethyl)-1H-pyrazole-4-carbonitrile]
Low Dose Cohort, ATD use at period-specific baseline No, Study Period 2
  Subjects with at least one Treatment period AE: 51 (43.2%)
[1]
  Subjects with a TEAE leading to study drug discontinuation: 0%
  Subjects with a Treatment cycle period AE leading to study withdrawal: 1 (2.4%)
  Subjects with at least one TEAE: 21 (51.2%)
  Subjects with at least one Treatment cycle period TEAE: 14 (34.1%)
  Subjects with at least one Treatment cycle period serious TEAE: 1 (2.4%)
  Subjects with at least one Treatment cycle period severe TEAE: 2 (4.9%)
  Subjects with at least one Treatment period AE: 12 (29.3%)
[2]
  Subjects with a TEAE leading to study drug discontinuation: 0%
  Subjects with a Treatment cycle period AE leading to study withdrawal: 0%
  Subjects with at least one TEAE: 8 (33.3%)
  Subjects with at least one Treatment cycle period TEAE: 6 (25.0%)
  Subjects with at least one Treatment cycle period serious TEAE: 0%
  Subjects with at least one Treatment cycle period severe TEAE: 0%
  Subjects with at least one Treatment period AE: 5 (20.8%)
[3]
  Subjects with a TEAE leading to study drug discontinuation: 0%
  Subjects with a Treatment cycle period AE leading to study withdrawal: 0%
  Subjects with at least one TEAE: 3 (33.3%)
  Subjects with at least one Treatment cycle period TEAE: 2 (22.2%)
  Subjects with at least one Treatment cycle period serious TEAE: 0%
  Subjects with at least one Treatment cycle period severe TEAE: 0%
  Subjects with at least one Treatment period AE: 2 (22.2%)
[4]
  Subjects with a TEAE leading to study drug discontinuation: (1.5%)
  Subjects with a Treatment cycle period AE leading to study withdrawal: (1.9%)
  Subjects with at least one TEAE: (57.9%)
  Subjects with at least one Treatment cycle period TEAE: (50.4%)
  Subjects with at least one Treatment cycle period serious TEAE: (0.4%)
  Subjects with at least one Treatment cycle period severe TEAE: (2.3%)
  Subjects with at least one Treatment period AE: (47.4%)
[5]
  Subjects with a TEAE leading to study drug discontinuation: 1 (1.1%)
  Subjects with a Treatment cycle period AE leading to study withdrawal: 1 (1.1%)
  Subjects with at least one TEAE: 48 (54.5%)
  Subjects with at least one Treatment cycle period TEAE: 36 (40.9%)
  Subjects with at least one Treatment cycle period serious TEAE: 1 (1.1%)
  Subjects with at least one Treatment cycle period severe TEAE: 2 (2.3%)
  Subjects with at least one Treatment period AE: 29 (33.0%)
[6]
  Subjects with a TEAE leading to study drug discontinuation: 0%
  Subjects with a Treatment cycle period AE leading to study withdrawal: 0%
  Subjects with at least one TEAE: 19 (42.2%)
  Subjects with at least one Treatment cycle period TEAE: 14 (31.1%)
  Subjects with at least one Treatment cycle period serious TEAE: 0%
  Subjects with at least one Treatment cycle period severe TEAE: 0%
  Subjects with at least one Treatment period AE: 12 (26.7%)
[7]
  Subjects with a TEAE leading to study drug discontinuation: 0%
  Subjects with a Treatment cycle period AE leading to study withdrawal: 0%
  Subjects with at least one TEAE: 7 (36.8%)
  Subjects with at least one Treatment cycle period TEAE: 3 (15.8%)
  Subjects with at least one Treatment cycle period serious TEAE: 0%
  Subjects with at least one Treatment cycle period severe TEAE: 0%
  Subjects with at least one Treatment period AE: 3 (15.8%)
[8]
  Subjects with a TEAE leading to study drug discontinuation: 0%
  Subjects with a Treatment cycle period AE leading to study withdrawal: 0%
  Subjects with at least one TEAE: 6 (54.5%)
  Subjects with at least one Treatment cycle period TEAE: 4 (36.4%)
  Subjects with at least one Treatment cycle period serious TEAE: 0%
  Subjects with at least one Treatment cycle period severe TEAE: 0%
  Subjects with at least one Treatment period AE: 4 (36.4%)
Low Dose cohort, as printed in b423 (451/677)
  Proportion of subjects reporting TEAEs: 66.6%
Low dose cohort (30 mg only), treatment cycle 1
  SAEs considered probably or possibly related to the study drug: none
Cycle 1
  Subjects reporting TEAEs leading to dose reduction: 3.4%
Cycle 2
  Subjects reporting TEAEs leading to dose reduction: 4.4%
Cycle 3
  Subjects reporting TEAEs leading to dose reduction: 2.3%
Cycle 4 (0/43)
  Subjects reporting TEAEs leading to dose reduction: 0%
Cycle 5
  Subjects reporting TEAEs leading to dose reduction: 10%
Overall (32/645)
  Subjects reporting TEAEs leading to dose reduction: 5.0%
Overall (N = 924)
  Subjects with at least one TEAE: 618 (66.9%)
  Subjects with at least one TEAE leading to study drug discontinuation: 32 (3.5%)
  Subjects with at least one TEAE leading to study withdrawal: 46 (5.0%)
  Subjects with at least one serious TEAE: 27 (2.9%)
  Subjects with at least one severe TEAE: 60 (6.5%)
  Subjects with Treatment Cycle Period TEAE: 485 (52.5%)
  Subjects with Treatment Period TEAE: 456 (49.4%)
30 mg Cohort (N = 725)
  Subjects with Treatment Cycle Period TEAE: 368 (50.8%)
  Subjects with Treatment Period TEAE: 348 (48.0%)
50 mg Cohort (N = 199)
  Subjects with Treatment Cycle Period TEAE: 117 (58.8%)
  Subjects with Treatment Period TEAE: 108 (54.3%)
Dose Switch Cohort (N = 80)
  Subjects with Treatment Cycle Period TEAE: 31 (38.8%)
  Subjects with Treatment Period TEAE: 28 (35.0%)
Low Dose Cohort (N = 645)
  Subjects with Treatment Cycle Period TEAE: 337 (52.2%)
  Subjects with Treatment Period TEAE: 320 (49.6%)
All dose cohorts
  Severity of the majority of TEAEs: mild to moderate; also recorded: mild or moderate
Any study period or dose cohort
  Suicidal ideation or suicidal behavior compared to baseline (C-SSRS): no signal for increased suicidal ideation or suicidal behavior
First course of Compound (1) 30 mg
  Tolerability: generally well-tolerated
In vivo
  Most common AEs that led to dose reduction: Somnolence, Dizziness, Sedation and Headache
[9]
  TEAE diarrhea: 6.3%
  TEAE dizziness: 9.1%
  TEAE dry mouth: 5.5%
  TEAE headache: 13.9%
  TEAE insomnia: 5.4%
  TEAE sedation: 8.7%
  TEAE somnolence: 12.8%
  TEAE upper respiratory infection: 6.3%
Subjects receiving Compound (1) 50 mg
  Overall safety observations with 50 mg versus safety findings with 30 mg: comparable
Treatment cycle 1, 50 mg cohort (5/199)
  Subjects reporting SAEs: 2.5%
Treatment cycle 1, Low Dose cohort (6/645)
  Subjects reporting SAEs: 0.9%
